target: PARP7 (Homo sapiens (Human), UniProt Q7Z3E1); test: TR-FRET assay: displacement of biotinylated Probe A from the TIPARP active site (Enzymatic Assay for Inhibition of PARP7); assay type: binding; details: TIPARP 6 nM, Probe A 2 nM, 25° C.
How it was run: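 6 nM His-tagged TIPARP and 2 nM biotinylated Probe A preincubated with compound 30 min at 25 °C in HEPES pH 8 buffer, then 4 nM ULight-anti-6×His and 0.25 nM Eu-streptavidin added for 30 min more. 665/615 nm ratio normalised to DMSO and 100 μM reference inhibitor controls; IC50 from 4-parameter fit.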

PARP7, sequence (Q7Z3E1 whole entry): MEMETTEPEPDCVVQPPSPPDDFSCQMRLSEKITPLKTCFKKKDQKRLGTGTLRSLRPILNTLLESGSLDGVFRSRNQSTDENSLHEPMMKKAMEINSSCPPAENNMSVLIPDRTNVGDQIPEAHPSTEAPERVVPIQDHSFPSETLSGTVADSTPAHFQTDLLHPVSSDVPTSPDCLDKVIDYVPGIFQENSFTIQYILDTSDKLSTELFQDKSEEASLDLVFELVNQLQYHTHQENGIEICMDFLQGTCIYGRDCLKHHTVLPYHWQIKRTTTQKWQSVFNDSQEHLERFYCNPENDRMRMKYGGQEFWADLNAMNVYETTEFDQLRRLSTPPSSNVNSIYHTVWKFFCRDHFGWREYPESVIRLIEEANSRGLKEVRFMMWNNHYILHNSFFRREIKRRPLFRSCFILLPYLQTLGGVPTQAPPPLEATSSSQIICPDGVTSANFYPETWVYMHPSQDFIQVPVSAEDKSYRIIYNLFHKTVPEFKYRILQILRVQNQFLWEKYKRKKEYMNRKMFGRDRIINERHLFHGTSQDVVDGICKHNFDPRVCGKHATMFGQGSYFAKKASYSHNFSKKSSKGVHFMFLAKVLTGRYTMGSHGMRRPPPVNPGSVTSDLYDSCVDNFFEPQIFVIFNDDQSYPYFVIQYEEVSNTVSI

Structure (SMILES) | IC50 [nM]
COC[C@@H](CO[C@@H]1CCN(C2CCN(c3ncc(C)cn3)CC2)C1=O)Nc1cn[nH]c(=O)c1C(F)(F)F [Example 53, 5-(((S)-1-methoxy-3-(((R)-1-(1-(5-methylpyrimidin-2-yl)piperidin-4-yl)-2-oxopyrrolidin-3-yl)oxy)propan-2-yl)amino)-4-(trifluoromethyl)pyridazin-3(2H)-one] | < 100
COC[C@@H](CO[C@H]1CCN(C2CCN(c3ccc(C#N)cn3)CC2)C1=O)Oc1cn[nH]c(=O)c1C(F)(F)F [Example 50A, 6-(4-((S)-3-((S)-3-methoxy-2-((6-oxo-5-(trifluoromethyl)-1,6-dihydropyridazin-4-yl)oxy)propoxy)-2-oxopyrrolidin-1-yl)piperidin-1-yl)nicotinonitrile] | 100 to 1000
COC[C@@H](CO[C@H]1CCN(C2CCN(c3ncc(C(F)(F)F)cn3)CC2)C1=O)Oc1cn[nH]c(=O)c1Br [Example 56A, 4-Bromo-5-(((S)-1-methoxy-3-(((S)-2-oxo-1-(1-(5-(trifluoromethyl)pyrimidin-2-yl)piperidin-4-yl)pyrrolidin-3-yl)oxy)propan-2-yl)oxy)pyridazin-3(2H)-one] | ≥ 1000
C[C@@H](COCC(=O)N(C)C1CCN(c2ncc(C(F)(F)F)s2)CC1)Nc1cn[nH]c(=O)c1C(F)(F)F [Example 3, (S)—N-methyl-2-(2-((6-oxo-5-(trifluoromethyl)-1,6-dihydropyridazin-4-yl)amino)propoxy)-N-(1-(5-(trifluoromethyl)thiazol-2-yl)piperidin-4-yl)acetamide] | < 100
C[C@@H](CO[C@H]1CCN(C2CCN(c3cnc(C(F)(F)F)cn3)CC2)C1=O)Oc1cn[nH]c(=O)c1C(F)(F)F [Example 31A, 5-(((S)-1-(((S)-2-oxo-1-(1-(5-(trifluoromethyl)pyrazin-2-yl)piperidin-4-yl)pyrrolidin-3-yl)oxy)propan-2-yl)oxy)-4-(trifluoromethyl)pyridazin-3(2H)-one] | < 100
C[C@H](Nc1cn[nH]c(=O)c1C(F)(F)F)C(=O)N[C@@H]1CCN(C2CCN(c3ncc(C(F)(F)F)cn3)CC2)C1=O [Example 61, (S)—N—((R)-2-oxo-1-(1-(5-(trifluoromethyl)pyrimidin-2-yl)piperidin-4-yl)pyrrolidin-3-yl)-2-((6-oxo-5-(trifluoromethyl)-1,6-dihydropyridazin-4-yl)amino)propanamide] | < 100
C[C@@H](CO[C@@H]1CCCN(C2CCN(c3ncc(C(F)(F)F)cn3)CC2)C1=O)Nc1cn[nH]c(=O)c1C(F)(F)F [Example 34B, (R)-3-((S)-2-((6-oxo-5-(trifluoromethyl)-1,6-dihydropyridazin-4-yl)amino)propoxy)-1′-(5-(trifluoromethyl)pyrimidin-2-yl)-[1,4′-bipiperidin]-2-one] | < 100
O=C1[C@H](OC[C@H](CO)Nc2cn[nH]c(=O)c2C(F)(F)F)CCN1C1CCN(c2ncc(C(F)(F)F)cn2)CC1 [Example 63, 5-(((S)-1-hydroxy-3-(((R)-2-oxo-1-(1-(5-(trifluoromethyl)pyrimidin-2-yl)piperidin-4-yl)pyrrolidin-3-yl)oxy)propan-2-yl)amino)-4-(trifluoromethyl)pyridazin-3(2H)-one] | < 100
COC[C@@H](CO[C@@H]1CCN(C2CCN(c3ncc(C#N)s3)CC2)C1=O)Nc1cn[nH]c(=O)c1C(F)(F)F [Example 54, 2-(4-((R)-3-((S)-3-methoxy-2-((6-oxo-5-(trifluoromethyl)-1,6-dihydropyridazin-4-yl)amino)propoxy)-2-oxopyrrolidin-1-yl)piperidin-1-yl)thiazole-5-carbonitrile] | < 100
C[C@@H](CO[C@@H]1CCN(C2CCN(c3ncc(C(F)(F)F)cn3)CC2C(N)=O)C1=O)Nc1cn[nH]c(=O)c1C(F)(F)F (stereo partly drawn) [Example 68, 4-((R)-2-oxo-3-((S)-2-((6-oxo-5-(trifluoromethyl)-1,6-dihydropyridazin-4-yl)amino)propoxy)pyrrolidin-1-yl)-1-(5-(trifluoromethyl)pyrimidin-2-yl)piperidine-3-carboxamide] | < 100
COC[C@@H](CO[C@@H]1CCN(C2CCN(c3cnc(C(F)(F)F)cn3)CC2)C1=O)Nc1cn[nH]c(=O)c1C(F)(F)F [Example 18B] | < 100
C[C@@H](CO[C@@H]1CCN(C2CCN(c3ncc(C(F)(F)F)cn3)CC2C#N)C1=O)Nc1cn[nH]c(=O)c1C(F)(F)F (stereo partly drawn) [Example 69, 4-((R)-2-oxo-3-((S)-2-((6-oxo-5-(trifluoromethyl)-1,6-dihydropyridazin-4-yl)amino)propoxy)pyrrolidin-1-yl)-1-(5-(trifluoromethyl)pyrimidin-2-yl)piperidine-3-carbonitrile] | < 100
C[C@@H](CO[C@@H]1CCN([C@H]2CCN(c3ncc(C(F)(F)F)cn3)C[C@@H]2F)C1=O)Nc1cn[nH]c(=O)c1C(F)(F)F (single isomer, unassigned) [Example 38B] | < 100
CC(=O)NC[C@@H](CO[C@@H]1CCN(C2CCN(c3ncc(C(F)(F)F)cn3)CC2)C1=O)Nc1cn[nH]c(=O)c1C(F)(F)F [Example 66, N—((S)-3-(((R)-2-oxo-1-(1-(5-(trifluoromethyl)pyrimidin-2-yl)piperidin-4-yl)pyrrolidin-3-yl)oxy)-2-((6-oxo-5-(trifluoromethyl)-1,6-dihydropyridazin-4-yl)amino)propyl)acetamide] | < 100
C[C@@H](CO[C@@H]1CCN([C@@H]2CCN(c3ncc(C(F)(F)F)cn3)C[C@@H]2O)C1=O)Nc1cn[nH]c(=O)c1C(F)(F)F [Example 59, 5-(((S)-1-(((R)-1-((3S,4R)-3-hydroxy-1-(5-(trifluoromethyl)pyrimidin-2-yl)piperidin-4-yl)-2-oxopyrrolidin-3-yl)oxy)propan-2-yl)amino)-4-(trifluoromethyl)pyridazin-3(2H)-one] | < 100
C[C@@H](CO[C@H]1CCN(C2CCN(c3cnc(C(F)(F)F)cn3)CC2)C1=O)Nc1cn[nH]c(=O)c1C(F)(F)F [Example 13A, 5-(((S)-1-(((S)-2-oxo-1-(1-(5-(trifluoromethyl)pyrazin-2-yl)piperidin-4-yl)pyrrolidin-3-yl)oxy)propan-2-yl)amino)-4-(trifluoromethyl)pyridazin-3(2H)-one] | 100 to 1000
C[C@@H](CO[C@@H]1CCN(C2CCN(c3ncc(C(F)(F)F)cn3)CC2)C1=O)Nc1cn[nH]c(=O)c1C(F)(F)F [Example 10B, 5-((S)-1-((R)-1-(1-(5-(trifluoromethyl)pyrimidin-2-yl)piperidin-4-yl)-2-oxopyrrolidin-3-yloxy)propan-2-ylamino)-4-(trifluoromethyl)pyridazin-3(2H)-one] | < 100
C[C@@H](CO[C@H]1CCN(C2CCN(c3ncc(C(F)(F)F)cn3)CC2O)C1=O)Oc1cn[nH]c(=O)c1C(F)(F)F (stereo partly drawn) [Example 64A, Syn-5-(((2S)-1-(((3S)-1-(3-hydroxy-1-(5-(trifluoromethyl)pyrimidin-2-yl)piperidin-4-yl)-2-oxopyrrolidin-3-yl)oxy)propan-2-yl)oxy)-4-(trifluoromethyl)pyridazin-3(2H)-one] | < 100
COC[C@@H](CO[C@@H]1CCN(C2CCN(c3ccc(C#N)cn3)CC2)C1=O)Nc1cn[nH]c(=O)c1C(F)(F)F [Example 17B, 6-(4-((R)-3-((S)-3-methoxy-2-((6-oxo-5-(trifluoromethyl)-1,6-dihydropyridazin-4-yl)amino)propoxy)-2-oxopyrrolidin-1-yl)piperidin-1-yl)nicotinonitrile] | < 100

Reference: patent US11691969B2, “Pyridazinones as PARP7 inhibtors” (Ribon Therapeutics, Inc., priority 2019, dated 2023)
